Laboratory results taken from US20060134119A1, “Drugs containing galectin 9” (priority 2003, published 2006).
Residues, ends and D or L forms follow the SMILES beside them. *: point of attachment. Cbz = O=C(OCc1ccccc1)*; CH2F = FC*

Columns and labels:
normal lymphocytes = settings: Normal Lymphocyte; 16 hr incubation with 1 mM galectin-9; PI, FACS
Description: (§1) Cytotoxicities in Jurkat T cells, K-562 leukemic cells, and normal lymphocytes were measured by flow cytometry analysis using PI. That is, PI invades into the damaged target cells when PI is added for the last 15 min of 16 hr incubation with 1 mM galectin-9. Fluorescence generated by PI is measured by FACS. Untreated cells were used as a negative control group, formalin-fixed cells as a 100% dead cell group, and H2O2 (hydrogen peroxide solution)-treated cells as a positive control group, respectively.

Jurkat T cells = settings: 16 hr incubation with 1 mM galectin-9, PI, FACS
Description: as §1

K-562 leukemic cells = settings: 16 hr incubation with 1 mM galectin-9, PI, FACS
Description: as §1

MOLT-4 cells [1] = experiment: Inhibition of Gal-9- or other stimulus-induced apoptosis by lactose, caspase and calpain inhibitors; format: cell-based, human; settings: inhibitor at different concentrations; FIG. 6, FIG. 7
MOLT-4 cells [2] = experiment: as above; format: cell-based, human; settings: for inhibition of DEX-induced apoptosis / inhibition of C2 ceramide-induced apoptosis / inhibition of TNF-α-induced apoptosis / inhibition of anti-Fas Ab-induced apoptosis: caspase inhibitors; for inhibition of DEX-induced apoptosis / inhibition of Gal-9-induced apoptosis / inhibition of C2 ceramide-induced apoptosis / inhibition of TNF-α-induced apoptosis / inhibition of anti-Fas Ab-induced apoptosis: FIG. 5; for inhibition of Gal-9-induced apoptosis: inhibitor at 10 μM, added 1 hr before Gal-9 stimulation; for effect on pro-apoptosis activity by Gal-9: 30 mM lactose or sucrose, FIG. 2
Description: MOLT-4 (T cell), Jurkat (T cell), BALL-1 (B cell), THP-1 (acute monocytic leukemia derived cell), and HL60 (acute promyelotic leukemia derived cell) cells were obtained from American Type Culture Collection (ATCC). All the cell lines were maintained in an RPMI-1640 medium (Sigma, St. Louis, US) supplemented with 10% FCS in 5% Co2 at 37° C. Lactose (30 mM) was added to the culture medium to inhibit Gal-9 activity. The same concentration of sucrose was used as a control. Cells were incubated with Gal-9 in the presence of Z-VAD-FMK (pan-caspase inhibitor), Z-YVAD-FMK (caspase-1 inhibitor), Z-IETD-FMK (caspase-8 inhibitor), Z-LEHD-FMK (caspase-9 inhibitor), Z-ABVD-FMK (caspase-lo inhibitor), or Z-LLY-FMK (calpain inhibitor) (BioVision, CA, US), at 10 μM, and the participation of caspase or calpain in the Gal-9-induced apoptosis was examined. Z-FA-FMK (BioVision, CA, US) was used as a control (Vu C. C. et al., J. Biol. Chem., 276: 37602 (2001) and Sweeney E. A. et al., FEBs Lett., 425: 61 (1998)). Each inhibitor was added 1 hr before Gal-9 stimulation. The following agents were purchased from suppliers below: DEX (BioVision, CA, US), anti-Fas Ab (clone CH-11, MBL), TNFα (Genzyme, Cambridge, Mass., US), C2 ceramide (SIGMA), and etoposide (Biovision).

MOLT-4 cells [3] = experiment: Ca2+ influx, Fluo-3 assay by flow cytometry; format: cell-based, human; settings: FIG. 8; for effect on calcium influx induced by Gal-9: 30 mM lactose or sucrose
Description: Cells (approx. 10^6 to 10^7 cells/mL) in the culture medium (10% FCS, RPMI-1640 containing 10 mM HEPES, pH 7.2) were incubated with fluo-3 AM (final concentration 10 μM, Dojindo, Kumamoto, Japan), an intracellular calcium indicator, at 37° C. for 30 min (Sharp, B. M. et al., Proc. Natl. Acad. Sci. USA, 93: 8294 (1996)). Then the cells were washed and resuspended in the culture medium (final concentration, approx. 2×10^5 cells/mL per sample). Intracellular calcium level was measured by flow cytometry. The resting cells were stimulated at 1 min after their fluorescence intensities were measured.
Next, sequential measurement was restarted until different stimuli were applied. In lactose inhibition assay, cells were stimulated in the presence of 30 mM lactose. Sucrose (30 mM) was used as a control (Sano, H. et al., J. Imnunol., 165: 2156 (2000)). A23187 (calcium ionophore, final concentration 5 ng/mL, Wako, Osaka, Japan) was used as a positive control.

CD4+ T cells = experiment: Apoptosis induction in peripheral blood CD4+ T cells, resting or anti-CD3 Ab-activated; format: cell-based, human; settings: galectin (+), 1 μM rGal-9
Description: (§2) To prepare a well plate coated with anti-CD3 Ab, 24 well palates were incubated with TBS solution (pH 8.0) containing 3 μg/mL anti-CD3 Ab (Inmunotech, Marseille, France) per well at 4° C. overnight, and each well was washed with PBS after removing anti-CD3 Ab solution.
(§3) Mononuclear leukocyte fractions were isolated from heparinized blood using HISTOPAQUE (Registered trademark, SIGMA). CD4-Positive Isolation Kit (DYNAL, Oslo, Norway) was used for isolation of CD4+ T cells and Dynabeads M-450 CD8 (Registered trademark, DYNAL, Oslo, Norway) for isolation of CD8+ T cells, respectively, according to the manufacturer's instructions.
(§4) To activate T cells, CD4+ or CD8+ cells at 1×10^6 cells/mL in an RPMI-1640 medium containing 10% FCS were incubated on the plate coated with anti-CD3 Ab for 20 to 24 hr at 37° C. in a 5% CO2 incubator, and incubated with rGal-9 [(His)6-Gal-9(S)] at 37° C. in a 5% CO2 incubator. Then apoptosis assay was conducted as described in (c). That is, cells were incubated with 50 μg/mL PI (SIGMA) at 37° C. for 10 min in the dark. Stained cells were analyzed by flow cytometry (Sandstrom, K. et al., J Immunol Methods, 240: 55 (2000) and Zhang L. et al., Cancer Lett, 142: 129 (1999)).
(§5) Apoptosis assay was also conducted for non-activated (resting) T cells as described above after incubating them with rGal-9 [(His)6-Gal-9(S)] at 37° C. in a 5% Co2 incubator.
(§6) For comparison, galectin-1 and -3 treated cells were analyzed.
(§7) Next, apoptosis induction by Gal-9 in human peripheral blood T cells was examined. T cells were separated into CD4+ and CD8+ T cells followed by incubation in the presence or absence of anti-CD3 Ab. Resting T cells and anti-CD3 Ab-activated T cells were incubated with 1 μM rGal-9.

MM-RU = experiment: Induction of cell aggregation in MM-RU; format: cell-based, human; settings: controls, at the dose of at least 1 μM
Description: Recombinant galectin-9 prepared via gene transfer into E. coli was added to MM-RU exogenously, and the efficacy of galectin-9 was then examined. As a result, galectin-9 induced aggregation of MM-RU at the concentration of 0.1 μM or higher. In addition, the galectin-9 efficacy was concentration-dependent, and significant between 0.3-1.0 μM.

CD8+ T cells = experiment: Apoptosis induction in peripheral blood CD8+ T cells, resting or anti-CD3 Ab-activated; format: cell-based, human; settings: galectin (+), 1 μM rGal-9
Description: as §2, §3, §4, §5, §6, §7

CD8 T Cell = experiment: Apoptosis induction in non-activated normal CD8 T cells (Table 4); format: cell-based; settings: 1 μM galectin-9, 1 μM galectin-3
Description: (§8) For example, measurements of apoptosis induction in the presence of 1 μM galectin-9 are as shown in Table 4 below (also 1 μM for galectin-3 in Table 4).

CD4 T Cell = experiment: Apoptosis induction in non-activated normal CD4 T cells (Table 4); format: cell-based; settings: 1 μM galectin-9, 1 μM galectin-3
Description: as §8

[4] = CD3 (+) cells activated on anti-CD3 Ab-coated plates
[5] = CD3 (−) untreated resting cells

OO [H2O2, hydrogen peroxide solution, reference compound]
cytotoxicity, 16 hours (normal lymphocytes): 96.8 | cytotoxicity, 16 hours (Jurkat T cells): 97.7 | cytotoxicity, 16 hours (K-562 leukemic cells): 99.2

CC(C)CC(NC(=O)OCc1ccccc1)C(=O)NC(CC(C)C)C(=O)NC(Cc1ccc(O)cc1)C(=O)CF (stereo not drawn) [Z-LLY-FMK] (Cbz-Leu-Leu-Tyr-CH2F; configuration not given here)
inhibition of Gal-9-induced apoptosis, dose dependence (MOLT-4 cells [1]): in a dose dependent manner

COC(=O)C[C@H](NC(=O)[C@H](C)NC(=O)[C@@H](NC(=O)[C@H](Cc1ccc(O)cc1)NC(=O)OCc1ccccc1)C(C)C)C(=O)CF [Z-YVAD-FMK]
inhibition of Gal-9-induced apoptosis, dose dependence (MOLT-4 cells [1]): in a dose-dependent manner | inhibition of DEX-induced apoptosis (MOLT-4 cells [2]): inhibited | inhibition of Gal-9-induced apoptosis (MOLT-4 cells [2]): inhibited

OC[C@H]1O[C@@](CO)(O[C@H]2O[C@H](CO)[C@@H](O)[C@H](O)[C@H]2O)[C@@H](O)[C@@H]1O [sucrose]
effect on calcium influx induced by Gal-9 (MOLT-4 cells [3]): not inhibited | effect on pro-apoptosis activity by Gal-9 (MOLT-4 cells [2]): not

Galectin-1: galectin used for comparison / control
apoptosis induction, CD4 (CD4+ T cells; [4]): 13.9 | apoptosis induction, CD4 (CD4+ T cells; [5]): 8.1 | aggregation (MM-RU): No obvious aggregation | apoptosis induction, CD8 (CD8+ T cells; [4]): 19 | apoptosis induction, CD8 (CD8+ T cells; [5]): 9.6

Galectin-3: galectin used for comparison / control
apoptosis induction, CD8 T Cell Resting (CD8 T Cell): 15.9 | apoptosis induction, CD4 (CD4+ T cells; [4]): 15.7 | apoptosis induction, CD4 (CD4+ T cells; [5]): 9.6 | aggregation (MM-RU): No obvious aggregation | apoptosis induction, CD8 (CD8+ T cells; [4]): 20.9 | apoptosis induction, CD8 (CD8+ T cells; [5]): 14.7 | apoptosis induction, CD4 T Cell Resting (CD4 T Cell): 10.3

COC(=O)C[C@H](NC(=O)[C@H](C)NC(=O)[C@@H](NC(=O)OCc1ccccc1)C(C)C)C(=O)CF [Z-VAD-FMK] (Cbz-Val-Ala-Asp(OMe)-CH2F)
inhibition of Gal-9-induced apoptosis, dose dependence (MOLT-4 cells [1]): in a dose-dependent manner | inhibition of C2 ceramide-induced apoptosis (MOLT-4 cells [2]): inhibition | inhibition of DEX-induced apoptosis (MOLT-4 cells [2]): inhibition | inhibition of TNF-α-induced apoptosis (MOLT-4 cells [2]): inhibition | inhibition of anti-Fas Ab-induced apoptosis (MOLT-4 cells [2]): inhibition | inhibition of Gal-9-induced apoptosis (MOLT-4 cells [2]): almost completely inhibited

COC(=O)CC[C@H](NC(=O)[C@H](C)NC(=O)OCc1ccccc1)C(=O)N[C@H](C(=O)N[C@@H](CC(=O)OC)C(=O)CF)C(C)C [Z-AEVD-FMK] (Cbz-AE(OMe)VD(OMe)-CH2F)
inhibition of TNF-α-induced apoptosis (MOLT-4 cells [2]): inhibited | inhibition of anti-Fas Ab-induced apoptosis (MOLT-4 cells [2]): inhibited

CNc1ccc2oc(C[C@H]3O[C@@]4(CC[C@H]3C)O[C@H]([C@H](C)C(=O)c3ccc[nH]3)[C@H](C)C[C@H]4C)nc2c1C(=O)O [A23187]
calcium influx (MOLT-4 cells [3]; Fluo-3 assay, A23187 final concentration 5 ng/mL): significantly induced

COC(=O)CC[C@H](NC(=O)[C@H](CC(C)C)NC(=O)OCc1ccccc1)C(=O)N[C@@H](Cc1cnc[nH]1)C(=O)N[C@@H](CC(=O)OC)C(=O)CF [Z-LEHD-FMK] (Cbz-LE(OMe)HD(OMe)-CH2F)
inhibition of C2 ceramide-induced apoptosis (MOLT-4 cells [2]): inhibited

OC[C@H]1O[C@@H](O[C@H]2[C@H](O)[C@@H](O)C(O)O[C@@H]2CO)[C@H](O)[C@@H](O)[C@H]1O (some centres unmarked) [lactose, Lactose]
effect on calcium influx induced by Gal-9 (MOLT-4 cells [3]): inhibited | effect on pro-apoptosis activity by Gal-9 (MOLT-4 cells [2]): almost completely inhibited

CC[C@H](C)[C@H](NC(=O)OCc1ccccc1)C(=O)N[C@@H](CCC(=O)OC)C(=O)N[C@H](C(=O)N[C@@H](CC(=O)OC)C(=O)CF)[C@@H](C)O [Z-IETD-FMK] (Cbz-IE(OMe)TD(OMe)-CH2F)
inhibition of TNF-α-induced apoptosis (MOLT-4 cells [2]): inhibited | inhibition of anti-Fas Ab-induced apoptosis (MOLT-4 cells [2]): inhibited
